Among the data in ChEMBL document CHEMBL4715894, “Design and synthesis of an anthranyl bridged optically active dinuclear iron(II)-ligand and evaluation of DNA-cleaving activity” (Bioorg Med Chem Lett, 2021) are Activity values, retold here.

Active and inactive are the calls of the source. The rule behind the calls is not given here.

Holding throughout (assay type): nucleic-acid assay
In experiment [1] the test system is DNA. The experiment can be described thus: Induction of DNA cleavage in Escherichia coli ER2272 pUC19 plasmid DNA assessed as decrease in supercoiled DNA at 0.1 to 50 uM in presence of Fe2+ at 10 uM after 60 mins by ethidium bromide staining based densitometric method relative to control. More on the design: scale not given: the % may be the effect or the level left. The note with it: dose 0.1-50 µM.

For experiment [2], the system named is DNA. The experiment can be described thus: Induction of DNA cleavage in Escherichia coli ER2272 pUC19 plasmid DNA assessed as linear DNA at 0.1 to 50 uM in presence of Fe2+ at >5 uM uM after 60 mins by ethidium bromide staining based densitometric method. To be noted: dose 0.1-50 µM.
The test system of experiment [3] is DNA. Put plainly: Induction of DNA cleavage in Escherichia coli ER2272 pUC19 plasmid DNA assessed as decrease in relaxed circular DNA at 0.1 to 50 uM in presence of Fe2+ at 10 uM after 60 mins by ethidium bromide staining based densitometric method. To be noted: dose 0.1-50 µM.
Experiment [4] concerns DNA. The experiment can be described thus: Induction of DNA cleavage in Escherichia coli ER2272 pUC19 plasmid DNA assessed as decrease in supercoiled DNA at 0.1 to 50 uM in presence of Fe2+ at 30 to 50 uM after 60 mins by ethidium bromide staining based densitometric method. To be noted: dose 0.1-50 µM.
In experiment [5] the test system is DNA. The experiment can be described thus: Induction of DNA cleavage in Escherichia coli ER2272 pUC19 plasmid DNA assessed as decrease in relaxed circular DNA at 0.1 to 50 uM in presence of Fe2+ at 30 to 50 uM after 60 mins by ethidium bromide staining based densitometric method. To be noted: dose 0.1-50 µM.
Experiment [6] concerns DNA. The experiment can be described thus: Induction of DNA cleavage in Escherichia coli ER2272 pUC19 plasmid DNA assessed as decrease in linear DNA at 0.1 to 50 uM in presence of Fe2+ at 30 to 50 uM after 60 mins by ethidium bromide staining based densitometric method. The note with it: dose 0.1-50 µM.
Experiment [7] deals with DNA. The experiment can be described thus: Induction of DNA cleavage in Escherichia coli ER2272 pUC19 plasmid DNA assessed as increase in relaxed circular DNA at 15 uM in presence of Fe2+ at 30 uM after 1 min by ethidium bromide staining based densitometric method.
Experiment [8] has as its system DNA. Put plainly: Induction of DNA cleavage in Escherichia coli ER2272 pUC19 plasmid DNA assessed as increase in linear DNA at 15 uM in presence of Fe2+ at 30 uM after 1 min by ethidium bromide staining based densitometric method.
Experiment [9] concerns DNA. Put plainly: Induction of DNA cleavage in Escherichia coli ER2272 pUC19 plasmid DNA assessed as decrease in supercoiled DNA at 15 uM in presence of Fe2+ at 30 uM after 1 min by ethidium bromide staining based densitometric method relative to control.
In experiment [10] the test system is DNA. Put plainly: Induction of DNA cleavage in Escherichia coli ER2272 pUC19 plasmid DNA assessed as decrease in relaxed circular DNA at 15 uM in presence of Fe2+ at 30 uM <=15 min by ethidium bromide staining based densitometric method. To be noted: time min <=15.
Experiment [11] deals with DNA. Put plainly: Induction of DNA cleavage in Escherichia coli ER2272 pUC19 plasmid DNA assessed as decrease in linear DNA at 15 uM in presence of Fe2+ at 30 uM <=15 min by ethidium bromide staining based densitometric method. The note with it: time min <=15.
Experiment [12] has as its system dsDNA. Put plainly: Induction of DNA cleavage in pBluescript II SK+ DNA (unknown origin) assessed as cleaved in 5'-AATTCCGGAA-3' sequence at 5 uM in presence of Fe2+ at 30 uM after 10 mins by PAGE based DNA sequencing analysis.
For experiment [13], the system named is dsDNA. Put plainly: Induction of DNA cleavage in pBluescript II SK+ DNA (unknown origin) assessed as cleaved in 5'-TTAATT-3' sequence at 5 uM in presence of Fe2+ at 30 uM after 10 mins by PAGE based DNA sequencing analysis.
The test system of experiment [14] is DNA. Put plainly: Induction of DNA cleavage in Escherichia coli ER2272 pUC19 plasmid DNA assessed as decrease in supercoiled DNA at 0.1 to 50 uM in presence of Fe2+ at 0.1 to 5 uM after 60 mins by ethidium bromide staining based densitometric method. The note with it: dose 0.1-50 µM.
In experiment [15] the test system is DNA. Put plainly: Induction of DNA cleavage in Escherichia coli ER2272 pUC19 plasmid DNA assessed as increase in relaxed circular DNA at 30 uM in presence of Fe2+ at 30 uM by ethidium bromide staining based densitometric method. To be noted: time min <=15.
For experiment [16], the system named is DNA. The experiment can be described thus: Induction of DNA cleavage in Escherichia coli ER2272 pUC19 plasmid DNA assessed as decrease in supercoiled DNA at 30 uM in presence of Fe2+ at 30 uM by ethidium bromide staining based densitometric method. The note with it: time min <=15.
For experiment [17], the system named is DNA. Put plainly: Induction of DNA cleavage in Escherichia coli ER2272 pUC19 plasmid DNA assessed as linear DNA at 30 uM in presence of Fe2+ at 30 uM up to 15 mins by ethidium bromide staining based densitometric method. The note with it: time min <=15.
In experiment [18] the test system is dsDNA. The experiment can be described thus: Induction of DNA cleavage in pBluescript II SK+ DNA (unknown origin) assessed as cleaved in 5'-CT-3' sequence at 30 uM in presence of Fe2+ at 30 uM after 30 mins by PAGE based DNA sequencing analysis.

For the compound `c1ccc(CN(Cc2ccccn2)[C@@H]2CCCC[C@H]2NCc2cccc3cc4cccc(CN[C@@H]5CCCC[C@H]5N(Cc5ccccn5)Cc5ccccn5)c4cc23)nc1`, the outcome with DNA [1], in the experiment with DNA [2], with DNA [3], in the experiment on DNA [4], with DNA [5] and with DNA [6] was Active. The result in the experiment on DNA [7], in the experiment with DNA [8], in the experiment on DNA [9], in the experiment on DNA [10], in the experiment on DNA [11] and in the experiment with dsDNA [12] was Active. Moreover, in the experiment on dsDNA [13], the result was Active.
On to `c1ccc(CN(Cc2ccccn2)[C@H]2CCCC[C@@H]2NCc2cccc3cc4cccc(CN[C@H]5CCCC[C@@H]5N(Cc5ccccn5)Cc5ccccn5)c4cc23)nc1`, for which the result in the experiment with DNA [1], in the experiment on DNA [2], in the experiment with DNA [3], in the experiment on DNA [4], with DNA [5] and in the experiment with DNA [6] was Active. In addition, the outcome with dsDNA [12] and with dsDNA [13] was Active.
On to `N[C@@H]1CCCC[C@H]1N(Cc1ccccn1)Cc1ccccn1`, for which the result in the experiment on DNA [14], in the experiment on DNA [2], in the experiment on DNA [15], in the experiment with DNA [16] and with dsDNA [18] was Active. Further, the Activity with DNA [1] stood at 100%. In addition, in the experiment on DNA [17], the outcome was inactive.
On to `N[C@H]1CCCC[C@@H]1N(Cc1ccccn1)Cc1ccccn1`, for which the outcome in the experiment on DNA [14], in the experiment on DNA [2] and in the experiment on dsDNA [18] was Active. In addition, in the experiment on DNA [1], the Activity came to 100%.
